Where two headings read alike, the source gives them in different places.
Key:
[1] = tested on: carbapenem-resistant P. aeruginosa strains; assay type: cell-based, Pseudomonas aeruginosa; details: for susceptibility category, antibiotic alone: Table 22, WC-452
Procedure: Such resensitization may be determined by combining the present lysins or lysin-AMP polypeptide constructs with an antibiotic in a checkerboard assay as described herein. Antibiotic-resistant bacteria, such as carbapenem-resistant P. aeruginosa, are added to the lysin or lysin-AMP polypeptide construct combination. […] See Clinical and Laboratory Standards Institute (CLSI), CLSI. […] M100 Performance Standards for Antimicrobial Susceptibility Testing; 29th Edition. Clinical and Laboratory Standards Institute, Wayne, Pa., which is herein incorporated by reference in its entirety.
Up to seven carbapenem-resistant isolates were assessed. […] See Clinical and Laboratory Standards Institute (CLSI), CLSI. […] M100 Performance Standards for Antimicrobial Susceptibility Testing; 29th Edition. Clinical and Laboratory Standards Institute, Wayne, Pa.

Staphylococcus aureus = assay: Daptomycin MIC in […] (positive control); assay type: cell-based; details: S. aureus
Procedure: As a positive control, the impact of […] ® on daptomycin (DAP) activity against Staphylococcus aureus was also tested.

[2] = Table 18, isolates PA19-PA24 and WC-452
[3] = Table 19, isolates PA19-PA24 and WC-452

C[C@@H](O)[C@H]1C(=O)N2C(C(=O)O)=C(SCCN=CN)C[C@H]12 [Imipenem, imipenem]
2 µg/mL: MIC Combination ([1]; isolate PA22, imipenem + GN121) | MIC Combination ([1]; isolate PA22, imipenem + GN123) | MIC Combination ([1]; isolate PA24, imipenem + GN123)
1 µg/mL: MIC Combination ([1]; isolate PA19, imipenem + GN121) | MIC Combination ([1]; isolate PA20, imipenem + GN123) | MIC Combination ([1]; isolate PA21, imipenem + GN121) | MIC Combination ([1]; isolate PA24, imipenem + GN121) | MIC Combination ([1]; isolate WC-452, imipenem + GN123)
0.5 µg/mL: MIC Combination ([1]; isolate PA19, imipenem + GN123) | MIC Combination ([1]; isolate PA20, imipenem + GN121) | MIC Combination ([1]; isolate PA21, imipenem + GN123)
R: susceptibility category, imipenem alone [1, 2] | susceptibility category, imipenem alone ([1]; Table 20, isolates PA19-PA24) | susceptibility category, antibiotic alone [1]
0.25 µg/mL: MIC Combination ([1]; isolate PA23, imipenem + GN123)
(S): susceptibility category, imipenem in combination with GN123 [1, 2] | susceptibility category, imipenem in combination with GN121 ([1]; Table 20, isolates PA19-PA24)

C[C@@H](O)[C@H]1C(=O)N2C(C(=O)O)=C(S[C@@H]3CN[C@H](C(=O)N(C)C)C3)[C@H](C)[C@H]12 [Meropenem, meropenem]
2 µg/mL: MIC Combination ([1]; isolate PA21, meropenem + GN121) | MIC Combination ([1]; isolate PA23, meropenem + GN121) | MIC Combination ([1]; isolate PA24, meropenem + GN123)
0.5 µg/mL: MIC Combination ([1]; isolate PA19, meropenem + GN123) | MIC Combination ([1]; isolate PA20, meropenem + GN123) | MIC Combination ([1]; isolate PA23, meropenem + GN123)
R: susceptibility category, meropenem alone [1, 3] | susceptibility category, meropenem alone ([1]; Table 21, isolates PA19-PA24 and WC-452) | susceptibility category, antibiotic alone [1]
1 µg/mL: MIC Combination ([1]; isolate PA19, meropenem + GN121) | MIC Combination ([1]; isolate PA20, meropenem + GN121) | MIC Combination ([1]; isolate PA21, meropenem + GN123) | MIC Combination ([1]; isolate PA22, meropenem + GN121) | MIC Combination ([1]; isolate PA22, meropenem + GN123) | MIC Combination ([1]; isolate PA24, meropenem + GN121) | MIC Combination ([1]; isolate WC-452, meropenem + GN121) | MIC Combination ([1]; isolate WC-452, meropenem + GN123)
(S): susceptibility category, meropenem in combination with GN123 [1, 3]

daptomycin
32 fold: fold increase in MIC (Staphylococcus aureus; 0.09% SURVANTA) | fold increase in MIC (Staphylococcus aureus; 0.19% SURVANTA)
128 fold: fold increase in MIC (Staphylococcus aureus; 1.56% SURVANTA) | fold increase in MIC (Staphylococcus aureus; 3.15% SURVANTA)

Reference: patent US20220411473A1, “LYSIN-ANTIMICROBIAL PEPTIDE (AMP) POLYPEPTIDE CONSTRUCTS, LYSINS, ISOLATED POLYNUCLEOTIDES ENCODING SAME AND USES THEREOF” (priority 2019, published 2022)
